Measurements taken from PubChem BioAssay AID504726 (Broad Institute, 2011).
Values joined by “and” are separate entries in the source; they are usually repeats but may differ in a detail not shown here. Equal entries are not always repeated.

Tested on: HeLa viability, CellTiter-Glo ATP luminescence, 24 h
Assay: HeLa cell cytotoxicity, dose response, cytotoxicity control, 24 h, cherry-picked samples (AID 504726)

With `O=C1c2c(O)ccc(O)c2C(=O)c2c(NCCNCCO)ccc(NCCNCCO)c21` the AC50 was 1360 nM and 4080 nM.
